Broadly, the Tmax is the time from dosing to the highest level. One may read the Cmax as the maximum level reached in the sampled fluid or tissue.

The values below come from patent US11344496B2, “Methods for preparing stabilized amorphous drug formulations using acoustic fusion” (Merck Sharp & Dohme Corp., priority 2017, dated 2022).

A short description of data set [1]: Rat oral pharmacokinetic study of torcetrapib formulations. Type of data set: in vivo. Particulars: male, Wistar-Han, plasma, rats, 10 mg/kg. How it is done: The in vivo absorption of Torcetrapib after oral administration of the Torcetrapib-copovidone-TPGS dispersion described in Example 4 was investigated in rats at a dose level of 10 mg/kg. Materials and methods used for the rat pharmacokinetic study are provided below. Crystalline drug powders and drug-polymer dispersion formulations were also evaluated as control formulations. The drug powders and drug-polymer dispersions were dosed as suspensions in 0.5% of methylene cellulose. The Torcetrapib-polymer dispersion was used as a benchmark formulation for enhancing the drug's solubility and oral absorption.
Male Wistar-Han rats were used for oral administration studies. All animals were fasted overnight before dosing, provided water ad libitum, and fed 4 hours following drug treatment. The fasted animals were orally given torcetrapib formulations by gavage (n=3) at a torcetrapib dose of 10 mg/kg. The formulations included a suspension of crystalline torcetrapib powder in 0.5% of methyl cellulose (MC), a suspension of torcetrapib-polymer dispersion in 0.5% of acidified MC (5 mM HCl added to prevent dissolution of the polymer in the vehicle). Serial blood samples were collected at 0.25, 0.5, 1, 2, 4, 8, 12, 18, and 24 hour post-dose and placed into EDTA-containing tubes and centrifuged. […]
Torcetrapib plasma concentrations were determined by LC-MS/MS following protein precipitation with acetonitrile. […] Analyte response was measured by multiple reaction monitoring (MRM) of transitions unique to each compound.
Calibration curves were generated and verified using standard and quality control samples prepared from an initial weighing of high purity compound. […] The limit of quantification was 1 ng/mL. […]
Pharmacokinetic parameters were calculated by established non-compartmental methods. The area under the plasma concentration vs. time curve from time zero to time t(AUC0-t) was determined using the Watson software (version 7.3) with linear trapezoidal interpolation in the ascending slope and logarithmic trapezoidal interpolation in the descending slope.

Data set [2] can be described thus: BCS (Biopharmaceutics Classification System) designation by solubility and permeability. Further details: key: BCS Class 1 describes compounds with high permeability and high solubility.; BCS Class 2 describes compounds with high permeability and low solubility.; BCS Class 3 describes compounds with low permeability and high solubility.; BCS Class 4 describes compounds with low permeability and low solubility. It counts as physicochemical. From the text: We tested a number of model drugs using the acoustic fusion methods, as described infra. The drugs tested are representative BCS Class 2 and Class 4 drugs. The BCS (Biopharmaceutics Classification System) designation is used to group compounds into classes based on their solubility and permeability (BCS guidance “Waiver of In vivo Bioavailability and Bioequivalence Studies for Immediate Release Solid Oral Dosage Forms Based on a Biopharmaceutics Classification System,” U.S. Department of Health and Human Services, Food and Drug Administration):
BCS Class 1 describes compounds with high permeability and high solubility.
BCS Class 2 describes compounds with high permeability and low solubility.
BCS Class 3 describes compounds with low permeability and high solubility.
BCS Class 4 describes compounds with low permeability and low solubility.
Under the BCS Classification System, a drug is considered highly soluble if fully solubilized in 250 mL water at the highest therapeutic dose at any physiological pH. A drug is considered highly permeable if the extent of oral absorption is greater than 90%.

Take `CCOC(=O)N1c2ccc(C(F)(F)F)cc2[C@@H](N(Cc2cc(C(F)(F)F)cc(C(F)(F)F)c2)C(=O)OC)C[C@H]1CC` [Torcetrapib, (2R,4S)-4-[(3,5-Bis-trifluoromethylbenzyl)methoxycarbonylamino]-2-ethyl-6-trifluoromethyl-3,4-dihydro-2H-quinoline-1-carboxylic acid ethyl ester]: the Tmax in data set [1] (mean n = 3) is 6 h. Also, in data set [1] (mean n = 3, read-out: AUC(0-24)), the AUC(0-t) was 0.707 µM·h. In addition, the Cmax in data set [1] (suspension in 0.5% methyl cellulose, mean n = 3) stood at 84 nM. Further, the “BCS Class” value in data set [2] was “BCS Class 2”.

As to `Cc1cccc(C)c1OCC(=O)N[C@@H](Cc1ccccc1)[C@@H](O)C[C@H](Cc1ccccc1)NC(=O)[C@H](C(C)C)N1CCCNC1=O` [Lopinavir, (αS)—N-[(1S,3S,4S)-4-[[2-(2,6-Dimethylphenoxy)acetyl]amino]-3-hydroxy-5-phenyl-1-(phenylmethyl)pentyl]tetrahydro-α-(1-methylethyl)-2-oxo-1(2H)-pyrimidineacetamide], the “BCS Class” value in data set [2] is reported as “BCS class 2”.
